From patent publication EP0558569B1, “MEDICAMENTS CONTAINING SULPHONAMIDES, NOVEL SULPHONAMIDES AND PROCES FOR PRODUCING THEM” (BOEHRINGER MANNHEIM GMBH, priority 1990, dated 1992)

Experiments:
[1] = tested on: P 388 D.1 Makrophagen; assay: Inhibition of cholesterol ester formation in macrophages under conditioned human plasma LDL (after Huber et al. 1990); format: cell-based; settings: for inhibition at 10 µM / IC50: Mus musculus, P388D1, 18 h; for inhibition at 10 µM: read-out: Hemmung der Cholesterinesterbildung in Macrophagen (P388D.1) 10 »M %; for IC50: read-out: Hemmung der Cholesterinesterbildung in Macrophagen (P388D.1) IC₅₀
Method: (§1) e) In-vitro-Wirkung der Verbindungen der Formel I und I' Hemmung der Cholesterinesterbildung in Makrophagen (nach Huber et al. (1990) Free Rad. Res. Comms. 8, 167-173): Humanplasma-LDL wurde durch sequenzielle Ultrazentrifugation bei präselektierten Dichten aus dem Plasma gesunder männlicher Nichtraucher isoliert und für 5 h bei 37° C in F-10 Medium + 1 »M Cu(II) zur Depletion seiner lipophilen Antioxidantien inkubiert. Die Bildung von Cholesterinestern in P 388 D.1 Makrophagen unter Einfluß von konditioniertem human Plasma-LDL wurde nach 18 h Inkubation der Zellen (2 x 10⁶/ml) in F-10 Medium + 1 » M Cu(II) + 50 »g/ml LDL + 5 % FCS nach Extraktion der Neutralfette dünnschichtchromatographisch gemessen. […] Stabilisierung von Plasma-LDL (nach Huber et al. (1990) Free Rad. Res. Comms. 8, 167-173): LDL (125 »g Protein/ml) wurde in 20 mM Tris-Cl pH 8, 150 mM NaCl, 10 »M CuCl₂ mit und ohne Testverbindung (gelöst in Äthanol, Äthanolendkonzentration 0,5 %) bei 42° C oxidiert. Es wurden jeweils 3 Moleküle Testsubstanz pro LDL-Partikel eingesetzt. Die Oxidation wurde kontinuierlich photometrisch bei A 234 durch die Messung der Dienbildung verfolgt. Die sogenannte "lag Phase" ist als dasjenige Zeitintervall definiert, das sich aus dem Schnittpunkt der Tangente der Kurve während der Propagationsreaktion der Lipidperoxidation und er Zeitachse ergibt. […] Hemmung der Sojabohnenlipoxygenase (15-Lipoxygenase) am LDL-Substrat (nach Cathcart et al. (1991) J. Lipid Res. 32, 63-70): LDL (100 »g Protein/ml) wurde in 20 mM Tris-Cl pH 8,3, 150 mM NaCl mit und ohne Testsubstanz (gelöst in Äthanol, Endkonzentration des Äthanol 0,5 %) mit 5000 U/2ml Sojabohnen-Lipoxygenase (Sigma, München) bei 37° C inkubiert: Die Oxidation wurde durch Messung der Diene kontinuierlich bei A 234 verfolgt. Als IC₅₀-Wert wird diejenige Konzentration der Testverbindung angegeben, die zur Halbierung der im Testansatz über die Zeit linearen Dienbildung führt.

[2] = tested on: Plasma-LDL; assay: Stabilisation of plasma LDL against Cu(II) oxidation: prolongation of the lag phase of diene formation (A 234); format: biochemical, human; settings: 3 Moleküle Testsubstanz pro LDL-Partikel; LDL 125 »g Protein/ml, 10 »M CuCl₂, pH 8, 42° C
Method: as §1

[3] = tested on: Ratten mit diätetisch induzierter Hypercholesterinämie; assay: Dose-dependent effect on serum cholesterol in rats with diet-induced hypercholesterolaemia; format: in vivo, SD Ratten; settings: for S-Cholesterin: 4 days on 2 % Cholesterin/0,2 % Cholsäure diet, measured day 5, Mittelwerte +/- SEM, n=6; for % Kontrollen: S-Cholesterin as % of controls (dose 0 = 100)
Source text: Die Verbindungen der Formel I bzw. I' sind Antioxidantien-Sulfonamidanaloga, die Hemmstoffe der Cholesterinesterbildung in der Arterienwand zur Behandlung der Arteriosklerose darstellen. a) Die Zytogenese der Atheromatose Hypercholesterinämie und Syndrome von Hypercholesterinämie/Hypertriglyceridämie Syndrome sind Risikofaktoren für die vorzeitige Arteriosklerose. In der Pathogenese der arteriosklerotischen Läsion selbst spielt die oxidative Modifikation von Lipoproteinen in der Arterienwand eine wichtige Rolle. Sie führt zur Freisetzung von chemotaktisch wirksamen Mediatoren und zur Wanderung von makrophagozytären Zellen aus dem Blut in die Arterienwand. In der Gefäßwand nehmen Makrophagen besonders intensiv oxidativ verändertes low-density lipoprotein (LDL) unreguliert auf. Die damit verbundene Erhöhung des Cholesterininfluxes und die Belastung des zellulären Stoffwechsels führt zu einem Anstieg des intrazellulären Cholesterins, einer Steigerung der Reacylierung des Cholesterins und Speicherung der Cholesterinester, die wiederum zur Ausbildung großer cytoplasmatischer Cholesterinesterdepots und zur Degeneration dieser Makrophagen ("Schaumzellen") führen. Die Schaumzellen sind das zelluläre Substrat des Atheroms und verursachen die makroskopisch sichtbaren Fettstreifen, aus denen sich dann die fibrösen Plaqueläsionen bei Fortschreiben der Erkrankung entwickeln. b) Die Grundlagen für eine antiatherosklerotische Therapie bei Fettstoffwechselstörungen Eine an die Kausalzusammenhänge orientierte antiatherosklerotische Therapie fußt idealerweise auf mindestens drei Säulen: 1. einer Senkung pathologisch erhöhter Lipidspiegel im Plasma durch Diät und/oder Pharmaka, 2. einem wirksamen Antioxidantienschutz besonders des stark atherogenen LDL zur Verminderung des oxidativen LDL-Katabolismus im Atherom und 3. einer Hemmung der Cholesterinesterbildung in den Schaumzellen der fettstreifigen Frühläsionen. Einige Senker des Serum-Cholesterins wirken, indem sie den hepatischen Pool des freien Cholesterins kontrahieren und den Katabolismus des atherogenen LDL-Cholesterins erhöhen: Ionenaustauscher interferieren z. B. mit dem enterhepatischen Cholesterinkreislauf, führen zur Depletion der Gallensäuren in den Hepatozyten und stimulieren die LDL-Cholesterinaufnahme aus dem Plasmakompartment durch eine vermehrte hepatische Aufnahme von Cholesterin über LDL und die hepatischen Apo B,E-Rezeptoren (LDL-Rezeptoren). Ähnlich wirken die Cholesterinsynthese-blocker, z. B. Lovastatin. Sie vermindern das hepatische Cholesterin und bedingen ebenfalls eine gesteigerte Aufnahme von LDL-Cholesterin aus dem Plasma über eine Vermehrung der LDL-Rezeptoren. Auch Hemmer der Cholesterinresorption bedingen eine Absenkung des hepatischen Cholesterinpools, indem sie die exogene diätetische Belastung durch Cholesterin reduzieren. Beispiele hierfür sind die sogenannten Acyl CoA: cholesterinacyltransferase (ACAT)-Hemmer, die in den Enterozyten den Cholesterinefflux via Chylomikronen durch die Hemmung der Veresterung freien Cholesterins unterbinden. In der Leber wird durch diese Hemmer der Cholesterinesterbildung zusätzlich das freie Cholesterin erhöht und die endogene hepatische Cholesterinbiosynthese durch Endprodukt-Hemmung indirekt gehemmt. In den Schaumzellen des Atheroms wird durch die Blockade der Cholesterinesterbildung erhöht freies Cholesterin in den "Reverse Cholesterol Transport pathway" der high-density lipoproteins (HDL) eingebracht, daraus entsteht ein zusätzlicher direkter antiatherogener Effekt. Antioxidantien sind Substanzen, die - allgemein gesehen - eine erhebliche Verzögerung der oxidativen Vorgänge bei einem zu schützenden Produkt bewirken. […] Es ist ein sterisch gehindertes Alkylphenol, das im LDL akkumuliert. […] Methode: 220-250 g schwere SD Ratten erhielten eine Standarddiät, die mit 2 % Cholesterin/0,2 % Cholsäure angereichert wurde, über 4 Tage. […]

Row | SMILES | inhibition at 10 µM [1] [%] | IC50 [1] [nM] | Stabilisierung von Plasma LDL: Verlängerung d. "lag-Phase" % [2] [%] | also measured
1 | CC(C)(C)c1cc(CNS(=O)(=O)c2ccc(Cl)cc2)cc(C(C)(C)C)c1O [Beispiel 2, 4-Chlorbenzolsulfo-(3,5-di-tert.butyl-4-hydroxy)benzylamid] | 78.7 | 2500 | 44 | 
2 | CN(Cc1cc(C(C)(C)C)c(O)c(C(C)(C)C)c1)S(=O)(=O)c1ccc(Cl)cc1 [Beispiel 3, N-Methyl-4-chlorbenzolsulfo-(3,5-di-tert.butyl-4-hydroxy)benzylamid] | 54.9 |  | 40 | 
3 | CC(C)(C)c1cc(CCCNS(=O)(=O)c2ccc(Cl)cc2)cc(C(C)(C)C)c1O [Beispiel 4b] | 49.2 |  |  | 
4 | CC(C)c1cc(C(C)C)c(S(=O)(=O)NCc2cc(C(C)(C)C)c(O)c(C(C)(C)C)c2)c(C(C)C)c1 [Beispiel 5.10, 2,4,6-tris-Isopropyl-benzolsulfo-(3,5-di-tert.butyl-4-hydroxy)benzylamid] | 60.3 | 7000 | 99 | 
5 | CC(C)c1cc(C(C)C)c(S(=O)(=O)NCCc2cc(C(C)(C)C)c(O)c(C(C)(C)C)c2)c(C(C)C)c1 [Beispiel 5.17] | 78 |  | 50 | 
6 | CCCCS(=O)(=O)NCCCc1cc(C(C)(C)C)c(O)c(C(C)(C)C)c1 [Beispiel 5.19] | 43.8 |  |  | 
7 | CC(C)(C)c1cc(CCNS(=O)(=O)c2ccc(F)cc2)cc(C(C)(C)C)c1O [Beispiel 5.28, 2-[4-Fluorbenzolsulfo-(3,5-di-tert.butyl-4-hydroxy)]-phenethylamid] | 92.6 | 1200 | 25 | S-Cholesterin ([3]; 5 mg/kg/d by gavage in 2 ml Pflanzenöl): 187 +/- 23 mg %; S-Cholesterin ([3]; 15 mg/kg/d by gavage in 2 ml Pflanzenöl): 120 +/- 15 mg %; S-Cholesterin ([3]; 50 mg/kg/d by gavage in 2 ml Pflanzenöl): 114 +/- 14 mg %; S-Cholesterin ([3]; 100 mg/kg/d by gavage in 2 ml Pflanzenöl): 84 +/- 8 mg %; % Kontrollen ([3]; 5 mg/kg/d): 75%; % Kontrollen ([3]; 15 mg/kg/d): 48%; % Kontrollen ([3]; 50 mg/kg/d): 46%; % Kontrollen ([3]; 100 mg/kg/d): 33%
8 | CC(Cc1cc(C(C)(C)C)c(O)c(C(C)(C)C)c1)NS(=O)(=O)C(C)C (stereo not drawn) [Beispiel 5.31] | 33.9 |  | 18 | 
9 | CC(C)(Sc1cc(C(C)(C)C)c(O)c(C(C)(C)C)c1)Sc1cc(C(C)(C)C)c(O)c(C(C)(C)C)c1 [Probucol, reference compound] |  |  | 10 | Hemmung der Cholesterbildung ([1]; reference substance at 10 »M, n=7, printed as positive inhibition): 25-42%
